Experimental data reported in patent publication US20230192617A1, “AZABICYCLIC(THIO)AMIDES AS FUNGICIDAL COMPOUNDS” (Bayer CropScience Aktiengesellschaft, priority 2020, published 2023).

Key:
[1] = tested on: Sphaerotheca fuliginea; assay: In vivo preventive test on Sphaerotheca fuliginea (powdery mildew on cucurbits); conditions: Podosphaera fuliginea, 192 h; 500 ppm of active ingredient; preventive spray on gherkin; evaluated 8 days after inoculation; read-out: efficacy
Method in brief: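 Young gherkin plants were sprayed with compound in DMSO/acetone/Tween 80 diluted in water. They were inoculated 24 h later with a spore suspension of Sphaerotheca fuliginea. Plants were then kept for 8 days at 20 °C and 70–80% relative humidity.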

[2] = tested on: Colletotrichum lindemuthianum; assay: B-8. Colletotrichum lindemuthianum in vitro cell test; format: cell-based; conditions: 144 h, 20 ppm of active ingredient, 6 days incubation, liquid culture, absorbance, read-out: efficacy (inhibition of fungal growth)
Method in brief: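 Spore suspension of C. lindemuthianum in liquid medium exposed to DMSO-solubilized compounds (final DMSO ≤1%) for 6 days. Mycelial growth read by absorbance, with inhibition calculated relative to compound-free control wells.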

[3] = tested on: Colletotrichum lindemuthianum; assay: In vivo preventive test on Colletotrichum lindemuthianum (leaf spot on bean); conditions: 168 h, 500 ppm of active ingredient, preventive spray on bean, evaluated 7 days after inoculation, read-out: efficacy
Method in brief: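 Young bean plants sprayed with compound in DMSO/acetone/Tween 80 diluted in water; solvent-only controls. Inoculated 24 h later with C. lindemuthianum spore suspension, then kept 24 h at 20 °C/100% RH and 6 days at 20 °C/90% RH.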

[4] = tested on: Pyrenophora teres; assay: B-10. Pyrenophora teres in vitro cell test; format: cell-based; conditions: 144 h, 20 ppm of active ingredient, 6 days incubation, liquid culture, absorbance, read-out: efficacy (inhibition of fungal growth)
Method in brief: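 Liquid-culture assay on a P. teres spore suspension with compounds added to the medium from DMSO solutions, final DMSO ≤1%. Mycelium growth read spectrometrically after 6 days. Inhibition calculated from absorbance against untreated control wells.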

[5] = tested on: Botrytis cinerea; assay: B-11. Botrytis cinerea in vitro cell test; format: cell-based; conditions: 144 h, 20 ppm of active ingredient, 6 days incubation, liquid culture, absorbance, read-out: efficacy (inhibition of fungal growth)
Method in brief: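 B. cinerea spores were grown in liquid culture with compound (DMSO ≤1% final). Mycelium growth was measured spectrometrically after 6 days, with inhibition taken as absorbance relative to untreated control wells.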

[6] = tested on: Septoria tritici; assay: B-9. Septoria tritici in vitro cell test; format: cell-based; conditions: Zymoseptoria tritici, 168 h; 20 ppm of active ingredient; 7 days incubation; liquid culture, absorbance; read-out: efficacy (inhibition of fungal growth)
Method in brief: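 Compounds from DMSO stocks (final DMSO ≤1%) were added to liquid medium containing S. tritici spores to test inhibition of germination and mycelial growth. After 7 days, mycelium growth was read spectrometrically and inhibition derived from absorbance versus fungicide-free control wells.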

[7] = tested on: Botrytis cinerea; assay: In vivo preventive test on Botrytis cinerea (grey mould); conditions: 500 ppm of active ingredient, preventive spray on gherkin or cabbage, evaluated 4 to 5 days after inoculation, read-out: efficacy
Method in brief: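 Young gherkin or cabbage plants were sprayed with compound in DMSO/acetone/Tween 80 diluted in water, then inoculated 24 hours later with a B. cinerea spore suspension. Incubation lasted 4 to 5 days: gherkin at 17° C., 90% relative humidity; cabbage at 20° C., 100% relative humidity.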

[8] = tested on: Alternaria brassicae; assay: In vivo preventive test on Alternaria brassicae (leaf spot on radish or cabbage); conditions: 500 ppm of active ingredient, preventive spray on radish or cabbage, evaluated 3 to 4 days after inoculation, read-out: efficacy
Method in brief: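 Young radish or cabbage plants were sprayed with compound dissolved in DMSO/acetone/Tween 80 and diluted in water; controls received solvent only. Inoculation by spraying A. brassicae spore suspension 24 h later, then 3–4 days at 20 °C and 100% relative humidity.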

SMILES	pest or weed control at 500 ppm [1] [%]	inhibition at 20 ppm [2] [%]	pest or weed control at 500 ppm [3] [%]	inhibition at 20 ppm [4] [%]	inhibition at 20 ppm [5] [%]	inhibition at 20 ppm [6] [%]	pest or weed control at 500 ppm [7] [%]	pest or weed control at 500 ppm [8] [%]
Cc1ccc(C(F)(F)CNC(=O)c2c(Oc3cccc(Br)c3)nnc3ccccc23)c(C)c1 [I-216]	90 to 100	90 to 100	90 to 100	90 to 100	90 to 100	80 to 89	90 to 100	90 to 100
O=C(NCC(F)(F)c1ccc(Br)cc1Cl)c1c(Oc2cccc(C(F)(F)F)c2)nnc2c1COCC2 [I-229]	90 to 100	90 to 100	90 to 100	90 to 100	90 to 100	90 to 100	90 to 100	90 to 100
Cc1ccc(C(F)(F)CNC(=O)c2c(Oc3cccc(C4CC4)c3F)nnc3c2CCC3)c(Cl)c1 [I-144]	90 to 100	90 to 100	90 to 100	90 to 100	90 to 100	80 to 89	90 to 100	90 to 100
Cc1cc(Br)ccc1C(F)(F)CNC(=O)c1c(Oc2cccc(C(F)(F)F)c2)nnc2c1COCC2 [I-127]	90 to 100	90 to 100	90 to 100	90 to 100	90 to 100	90 to 100	90 to 100	90 to 100
Cc1ccc(C(F)CNC(=O)c2c(Oc3cccc(C(F)(F)F)c3)nnc3c2COCC3)c(C)c1 (stereo not drawn) [I-123]	90 to 100	90 to 100	90 to 100	90 to 100	90 to 100	90 to 100	90 to 100	90 to 100
Cc1ccc(C(F)(F)CNC(=O)c2c(Oc3cccc(C(F)(F)F)c3)nnc3cc(C)ccc23)c(Cl)c1 [I-245]	90 to 100	90 to 100	80 to 89	90 to 100	90 to 100	80 to 89	90 to 100	90 to 100
Cc1ccc(C(F)(F)CNC(=O)c2c(Oc3cccc(C(F)F)c3)cnc3ccccc23)c(C)c1 [I-220]	90 to 100	90 to 100	80 to 89	90 to 100	90 to 100	90 to 100	90 to 100	90 to 100
Cc1ccc(C(F)(F)CNC(=O)c2c(Oc3cccc(C4CC4)c3F)nnc3c2CCC3)c(C)c1 [I-134]	90 to 100	90 to 100	90 to 100	90 to 100	90 to 100	90 to 100	90 to 100	90 to 100
O=C(NC[C@H](F)c1ccc(Cl)cc1Cl)c1c(Oc2cccc(C(F)(F)F)c2)cnc2ccoc12 (racemic) [I-067]	90 to 100	90 to 100	90 to 100	90 to 100	90 to 100	70 to 79	90 to 100	90 to 100
Cc1ccc(C(F)(F)CNC(=O)c2c(Oc3cccc(Cl)c3F)nnc3c2CCCC3)c(Cl)c1 [I-140, 3-(3-chloro-2-fluoro-phenoxy)-N-[2-(2-chloro-4-methyl-phenyl)-2,2-difluoro-ethyl]-5,6,7,8-tetrahydrocinnoline-4-carboxamide]	90 to 100	90 to 100	90 to 100	90 to 100	90 to 100	90 to 100	90 to 100	90 to 100
O=C(NCC(F)c1ccc(Cl)cc1Cl)c1c(Oc2cccc(Cl)c2F)nnc2c1CCC2 (stereo not drawn) [I-188]	90 to 100	90 to 100	90 to 100	90 to 100	90 to 100	90 to 100	90 to 100	90 to 100
Cc1ccc(C(F)(F)CNC(=O)c2c(Oc3cccc(Cl)c3)nnc3c2CCCC3)c(Cl)c1 [I-139]	90 to 100	90 to 100	90 to 100	90 to 100	90 to 100	90 to 100	90 to 100	90 to 100
Cc1ccc(C(F)(F)CNC(=O)c2c(Oc3cccc(C(F)(F)F)c3)nnc3c2CCC3)c(C)c1 [I-132]	90 to 100	90 to 100	90 to 100	90 to 100	90 to 100	90 to 100	90 to 100	90 to 100
Cc1ccc(C(F)CNC(=O)c2c(Oc3cccc(Cl)c3F)nnc3c2CCCC3)c(C)c1 (stereo not drawn) [I-136]	90 to 100	90 to 100	90 to 100	90 to 100	90 to 100	90 to 100	90 to 100	90 to 100
O=C(NCC(F)c1ccc(Cl)cc1Cl)c1c(Oc2cccc(C3CC3)c2)nnc2c1CCCC2 (stereo not drawn) [I-119, 3-(3-cyclopropylphenoxy)-N-[2-(2,4-dichlorophenyl)-2-fluoro-ethyl]-5,6,7,8-tetrahydrocinnoline-4-carboxamide]	90 to 100	90 to 100	90 to 100	90 to 100	90 to 100	90 to 100	90 to 100	90 to 100
Cc1ccc([C@@H](F)CNC(=O)c2c(Oc3cccc(C(F)(F)F)c3)nnc3ccccc23)cc1C (racemic) [I-084]	80 to 89	90 to 100	90 to 100	90 to 100	90 to 100	90 to 100	90 to 100	90 to 100
Cc1ccc(C(F)(F)CNC(=O)c2c(Oc3cccc(C(F)(F)F)c3)nnc3c2CCCC3)c(Cl)c1 [I-239]	90 to 100	90 to 100	90 to 100	90 to 100	90 to 100	90 to 100	90 to 100	90 to 100
Cc1ccc(C(F)(F)CNC(=O)c2c(Oc3cccc(Br)c3F)nnc3c2CCCC3)c(C)c1 [I-128]	90 to 100	90 to 100	90 to 100	90 to 100	90 to 100	90 to 100	90 to 100	90 to 100
Cc1ccc(C(F)(F)CNC(=O)c2c(Oc3cccc(Cl)c3F)nnc3c2CCC3)c(C)c1 [I-133]	90 to 100	90 to 100	90 to 100	90 to 100	90 to 100	90 to 100	90 to 100	90 to 100
Cc1cc(Cl)ccc1C(F)(F)CNC(=O)c1c(Oc2cccc(C(F)(F)F)c2)nnc2c1CCCC2 [I-145]	90 to 100	90 to 100	90 to 100	90 to 100	90 to 100	90 to 100	90 to 100	90 to 100
Cc1ccc(C(F)(F)CNC(=O)c2c(Oc3cccc(Cl)c3F)nnc3c2CCCC3)c(C)c1 [I-130]	90 to 100	90 to 100	90 to 100	90 to 100	90 to 100	90 to 100	90 to 100	90 to 100
